According to patent US7901893B2, “NPC1L1 (NPC3) and methods of identifying ligands thereof” (Merck Sharp & Dohme Corp., priority 2004, dated 2011):
Read-outs that look alike come from different tables or passages of the source.

Assays:
[1] = tested on: membrane preparations from cells expressing NPC1L1; experiment: Preliminary binding studies with HEK-293 membrane preparations
Method: Transient expression of NPC1L1. Plasmid pCR3.1 expressing rat NPC1L1 (Genbank AY437867) or human NPC1L1 (Genbank AY437865) were prepared using standard molecular biology protocols. HEK-293 cells (ATCC) were seeded at 10×10^6 cells per T-225 flask (Corning) in DMEM containing 10% fetal calf serum, 4.5 g/L D-glucose and L-glutamine, 18 hours prior to transfection. They were transiently transfected with 25 μg of DNA using Fugene transfection reagent (Roche Biochemical) at a ratio of 6:1 Fugene:DNA. Following transfection, the cells were incubated at 37° C. and 5% CO2 for 48 hours, and then harvested using PBS based cell dissociation buffer (Gibco), pelleted at 500×g, snap frozen on dry ice, and stored at −80° C.
Membrane preparation from HEK-293 cells. Membranes were prepared by resuspending the frozen cell pellets in ten volumes of 20 mM HEPES/Tris buffer at pH 7.40 containing 8% sucrose, and sonicating the suspensions with a probe sonicator on ice until most of the cells were lysed. […]
Cell lysates from HEK-293 cells expressing NPC1L1 (Lanes 1 and 3 of Panel 1 FIG. 13) and wild-type cells (Lanes 2 and 4 of Panel 1 FIG. 13) were analyzed by gel electrophoresis and Western blot with an anti-NPC1L1 antibody A1801. […]

[2] = target: T1, CHO cells expressing SR-B1 (Mus musculus, UniProt Q61009); experiment: Cholesterol uptake assay (Example 4); format: cell-based; details: 10 μM ezetimibe
T1 construct: expressed in transfected cells; host or cells: CHO cells
T1 sequence (Q61009 1-509): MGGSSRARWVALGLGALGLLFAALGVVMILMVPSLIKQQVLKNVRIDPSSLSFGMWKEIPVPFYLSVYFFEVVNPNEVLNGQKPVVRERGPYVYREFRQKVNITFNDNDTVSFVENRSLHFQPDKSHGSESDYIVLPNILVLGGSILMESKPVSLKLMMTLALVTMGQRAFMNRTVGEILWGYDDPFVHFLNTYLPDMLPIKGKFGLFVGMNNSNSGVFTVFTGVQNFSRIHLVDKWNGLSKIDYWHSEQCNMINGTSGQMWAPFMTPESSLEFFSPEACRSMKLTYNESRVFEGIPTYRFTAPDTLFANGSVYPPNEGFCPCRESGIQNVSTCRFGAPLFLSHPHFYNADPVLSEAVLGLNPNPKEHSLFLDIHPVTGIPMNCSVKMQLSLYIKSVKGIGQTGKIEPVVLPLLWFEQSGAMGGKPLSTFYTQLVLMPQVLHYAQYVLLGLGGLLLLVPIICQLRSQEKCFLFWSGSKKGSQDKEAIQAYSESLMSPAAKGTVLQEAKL
Method: CHO cells expressing either SR-B1 or three different clones of rat NPC1L1 or one clone of mouse NPC1L1 were starved overnight in cholesterol free media then dosed with [3H]-cholesterol in a mixed synthetic micelle emulsion for 4 min, 8 min, 12 min or 24 m in the absence or presence of 10 µM ezetimibe. The cells were harvested and the lipids were organically extracted. The extracted lipids were spotted on thin-layer chromatography (TLC) plates and resolved within an organic vapor phase. The free cholesterol bands for each assay were isolated and counted in a scintillation counter.

cholesterol absorption [3] = details: mouse; cited from earlier work
cholesterol absorption [4] = details: cited from earlier work

| [^3H]-cholesterol uptake [2] | SMILES | binding to membrane preparations from cells expressing NPC1L1 [1] | binding to membranes from mock transfected cells [1] | potency (ED50) in vivo (cholesterol absorption [3]) | ED50 (cholesterol absorption [4]; monkey) | potency (ED50) in vivo (cholesterol absorption [4]; rhesus) |
| --- | --- | --- | --- | --- | --- | --- |
| – | O=C(O)[C@H]1O[C@@H](Oc2ccc([C@@H]3[C@@H](CC[C@H](O)c4ccc(F)cc4)C(=O)N3c3ccc(F)cc3)cc2)[C@H](O)[C@@H](O)[C@@H]1O [Compound 1, Ezetimibe glucuronide] | specific binding | no specific binding | – | – | – |
| inhibited | O=C1[C@H](CC[C@H](O)c2ccc(F)cc2)[C@@H](c2ccc(O)cc2)N1c1ccc(F)cc1 [ezetimibe] | – | – | 0.5 mpk | 0.5 µg/kg | 0.0005 mpk |
